In this experiment the target is PIM1 (Homo sapiens (Human), UniProt P11309). Briefly: biochemical. Type of experiment: biochemical.
[1] abbreviates: 20 pM PIM1, 1 μM FAM-peptide, 10 μM ATP, 90 minutes at room temperature, read-out: PIM1 LC3K (KI).

As usually defined, the Ki is the dissociation constant of the complex between target and ligand, obtained from inhibition or displacement.

Read-outs that look alike come from different tables or passages of the source.

Sequence of PIM1 (P11309 whole entry): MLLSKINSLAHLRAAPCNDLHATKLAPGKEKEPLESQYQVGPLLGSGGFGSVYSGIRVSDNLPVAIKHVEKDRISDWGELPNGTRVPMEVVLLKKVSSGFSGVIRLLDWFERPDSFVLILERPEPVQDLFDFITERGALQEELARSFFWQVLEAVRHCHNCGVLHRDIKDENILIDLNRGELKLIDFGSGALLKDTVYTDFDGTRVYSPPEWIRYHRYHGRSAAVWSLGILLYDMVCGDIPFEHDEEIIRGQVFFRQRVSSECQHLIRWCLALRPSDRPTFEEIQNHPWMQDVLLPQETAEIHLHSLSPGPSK
Protocol: Reaction Buffer contained 10 mM HEPES, pH 7.2, 10 mM MgCl2, 0.01% Tween 20, 2 mM DTT. Termination Buffer contained 190 mM HEPES, pH 7.2, 0.015% Brij-35, 0.2% Coating Reagent 3 (Caliper Life Sciences, Hopkinton, Mass.), 20 mM EDTA. Separation Buffer contained 100 mM HEPES, pH 7.2, 0.015% Brij-35, 0.1% Coating Reagent 3, 1:200 Coating Reagent 8 (Caliper Life Sciences, Hopkinton, Mass.), 10 mM EDTA and 5% DMSO.
PIM reactions were carried out in a final volume of 10 μL per well in a 384-well plate. […] After 90 minutes of incubation at room temperature, the phosphorylation reaction was stopped by the addition of 10 μL Termination Buffer. The product and substrate in each independent reaction were separated on a 12-sipper microfluidic chip (Caliper Life Sciences, Hopkinton, Mass.) run on a Caliper LC3000® (Caliper Life Sciences, Hopkinton, Mass.). The separation of product and substrate was optimized by choosing voltages and pressure using Caliper's Optimizer software (Hopkinton, Mass.). The separation conditions used a downstream voltage of −500V, an upstream voltage of −2150V, and a screening pressure of −1.2 psi. […] Substrate conversion was calculated from the electropherogram using HTS Well Analyzer software (Caliper Life Sciences, Hopkinton, Mass.). Ki values for the test compound were calculated.

For the compound `Cn1ncc(NC(=O)c2csc(-c3cnc4cccnc4c3)n2)c1[C@@H]1CC[C@@H](N)[C@H](F)CO1` [Example 399, N-[5-[(2S,5R,6S)-5-amino-6-fluoro-oxepan-2-yl]-1-methyl-pyrazol-4-yl]-2-(1,5-naphthyridin-3-yl)thiazole-4-carboxamide], the Ki under setting [1] stood at 0.21 nM.

As to `Cn1ncc(NC(=O)c2csc(-n3cc4ccccc4n3)n2)c1[C@@H]1CC[C@@H](N)[C@H](F)CO1` [Example 396, N-(5-((2S,5R,6S)-5-amino-6-fluorooxepan-2-yl)-1-methyl-1H-pyrazol-4-yl)-2-(2H-indazol-2-yl)thiazole-4-carboxamide], the inhibition constant Ki under setting [1] came to 0.002 nM.

Consider `Cn1ncc(NC(=O)c2csc(-c3c(F)cc(C(O)C4CC4)cc3F)n2)c1[C@@H]1CC[C@@H](N)[C@H](F)CO1` (stereo partly drawn) [Example 275, N-(5-((2S,5R,6S)-5-amino-6-fluorooxepan-2-yl)-1-methyl-1H-pyrazol-4-yl)-2-(4-(cyclopropyl(hydroxy)methyl)-2,6-difluorophenyl)thiazole-4-carboxamide], for which the inhibitory constant (Ki) was 0.037 nM.

On to `Cn1ncc(NC(=O)c2csc(-c3c(F)cc(C4CCOC4)cc3F)n2)c1[C@@H]1CC[C@@H](N)[C@H](F)CO1` (stereo partly drawn) [Example 216, N-(5-((2S,5R,6S)-5-amino-6-fluorooxepan-2-yl)-1-methyl-1H-pyrazol-4-yl)-2-(2,6-difluoro-4-(tetrahydrofuran-3-yl)phenyl)thiazole-4-carboxamide], for which the Ki under setting [1] stood at 0.011 nM.

On to `Cc1cccc(F)c1-c1nc(C(=O)Nc2cnn(C)c2[C@@H]2CC[C@@H](N)[C@@H](F)CO2)c(N)s1` [Example 273, 5-amino-N-(5-((2S,5R,6R)-5-amino-6-fluorooxepan-2-yl)-1-methyl-1H-pyrazol-4-yl)-2-(2-fluoro-6-methylphenyl)thiazole-4-carboxamide], for which the Ki under setting [1] worked out at 0.007 nM.

On to `Cn1ncc(NC(=O)c2csc(-c3cccc(F)c3Cl)n2)c1[C@@H]1CC[C@@H](N)[C@@H](F)CO1` [Example 250, N-(5-((2S,5R,6R)-5-amino-6-fluorooxepan-2-yl)-1-methyl-1H-pyrazol-4-yl)-2-(2-chloro-3-fluorophenyl)thiazole-4-carboxamide], for which, under setting [1], the Ki was determined as 0.132 nM.

As for `Cn1ncc(NC(=O)c2csc(-c3cccc(-c4cccc(Cl)c4F)c3F)n2)c1[C@@H]1CC[C@@H](N)[C@@H](F)CO1` [Example 249, N-(5-((2S,5R,6R)-5-amino-6-fluorooxepan-2-yl)-1-methyl-1H-pyrazol-4-yl)-2-(3′-chloro-2,2′-difluoro-[1,1′-biphenyl]-3-yl)thiazole-4-carboxamide], under setting [1], the inhibition constant Ki stood at 0.533 nM.

As for `Cc1cc(F)c(-c2nc(C(=O)Nc3cnn(C)c3[C@@H]3CC[C@@H](N)[C@H](F)CO3)ccc2F)c(F)c1` [Example 392, N-(5-((2S,5R,6S)-5-amino-6-fluorooxepan-2-yl)-1-methyl-1H-pyrazol-4-yl)-6-(2,6-difluoro-4-methylphenyl)-5-fluoropicolinamide], the Ki under setting [1] came out at 0.041 nM.

For the compound `Cn1ncc(NC(=O)c2nc(-c3c(F)ccc(F)c3F)sc2N)c1[C@@H]1CC[C@@H](N)[C@H](F)CO1` [Example 332, 5-amino-N-(5-((2S,5R,6S)-5-amino-6-fluorooxepan-2-yl)-1-methyl-1H-pyrazol-4-yl)-2-(2,3,6-trifluorophenyl)thiazole-4-carboxamide], the Ki under setting [1] was determined as 0.003 nM.

For `C[C@@H](O)c1cc(F)c(-c2nc(C(=O)Nc3cnn(C)c3[C@@H]3CC[C@@H](N)[C@H](F)CO3)cs2)c(F)c1` [Example 304, N-(5-((2S,5R,6S)-5-amino-6-fluorooxepan-2-yl)-1-methyl-1H-pyrazol-4-yl)-2-(2,6-difluoro-4-((R)-1-hydroxyethyl)phenyl)thiazole-4-carboxamide], under setting [1], the Ki worked out at 0.014 nM.

Take `Cn1ncc(NC(=O)c2nc(-c3c(F)cccc3F)sc2N)c1C1CCC(N)COC1` (stereo not shown) [Example 144, 5-amino-N-[5-(6-aminooxepan-3-yl)-1-methyl-pyrazol-4-yl]-2-(2,6-difluorophenyl)thiazole-4-carboxamide]: the Ki under setting [1] was found to be 1.45 nM.

With `Cn1ncc(NC(=O)c2ccc(F)c(-c3c(F)cc(OCCO)cc3F)n2)c1[C@@H]1CC[C@@H](N)[C@@H](F)CO1` [Example 190, N-(5-((2S,5R,6R)-5-Amino-6-fluorooxepan-2-yl)-1-methyl-1H-pyrazol-4-yl)-6-(2,6-difluoro-4-(2-hydroxyethoxy)phenyl)-5-fluoropicolinamide], under setting [1], the inhibitory constant (Ki) was determined as 0.014 nM.

Turning to `Cn1ncc(NC(=O)c2nc(-c3c(F)cccc3F)sc2N)c1C1CCC(N)C(F)CO1` (stereo not shown) [Example 124, 5-amino-N-[5-(5-amino-6-fluoro-oxepan-2-yl)-1-methyl-pyrazol-4-yl]-2-(2,6-difluorophenyl)thiazole-4-carboxamide], the inhibitory constant (Ki) under setting [1] was 0.015 nM.

Regarding `Cn1ncc(NC(=O)c2csc(-c3ccncc3F)n2)c1[C@@H]1CC[C@@H](N)[C@H](F)CO1` [Example 300, N-(5-((2S,5R,6S)-5-amino-6-fluorooxepan-2-yl)-1-methyl-1H-pyrazol-4-yl)-2-(3-fluoropyridin-4-yl)thiazole-4-carboxamide], the Ki under setting [1] was 0.134 nM.

Turning to `CC(O)c1cc(F)c(-c2nc(C(=O)Nc3cnn(C)c3[C@@H]3CC[C@@H](N)[C@H](F)CO3)ccc2F)c(F)c1` (stereo partly drawn) [Example 207, N-(5-((2S,5R,6S)-5-amino-6-fluorooxepan-2-yl)-1-methyl-1H-pyrazol-4-yl)-6-(2,6-difluoro-4-(1-hydroxyethyl)phenyl)-5-fluoropicolinamide], the inhibition constant Ki under setting [1] was 0.017 nM.

Regarding `Cn1ncc(NC(=O)c2nc(-c3c(F)cccc3F)sc2N)c1[C@H]1C[C@@H](N)CCO1` (stereo in doubt) [Example 158, 5-Amino-N-[5-[4-aminotetrahydropyran-2-yl]-1-methyl-pyrazol-4-yl]-2-(2,6-difluorophenyl)thiazole-4-carboxamide], the inhibition constant (Ki) under setting [1] is 0.032 nM.

Turning to `Cn1ncc(NC(=O)c2nc(-c3c(F)cccc3F)sc2N)c1[C@H]1CC[C@H](CN)O1` [Example 171, 5-Amino-N-[5-[(2R,5R)-5-(aminomethyl)tetrahydrofuran-2-yl]-1-methyl-pyrazol-4-yl]-2-(2,6-difluorophenyl)thiazole-4-carboxamide], the Ki under setting [1] is 0.027 nM.

On to `Cn1ncc(NC(=O)c2csc(-c3c(F)ccc(F)c3F)n2)c1[C@@H]1CC[C@@H](N)[C@H](F)CO1` [Example 243, N-(5-((2S,5R,6S)-5-amino-6-fluorooxepan-2-yl)-1-methyl-1H-pyrazol-4-yl)-2-(2,3,6-trifluorophenyl)thiazole-4-carboxamide], for which, under setting [1], the Ki is 0.047 nM.

For `CC[C@]1(CO)CO[C@@H](c2c(NC(=O)c3nc(-c4c(F)cccc4F)sc3N)cnn2C)OC1` [Example 163, 5-Amino-2-(2,6-difluorophenyl)-N-[5-[5-ethyl-5-(hydroxymethyl)-1,3-dioxan-2-yl]-1-methyl-pyrazol-4-yl]thiazole-4-carboxamide], the inhibition constant Ki under setting [1] stood at 1.26 nM.

Turning to `COC(C)c1cc(F)c(-c2nc(C(=O)Nc3cnn(C)c3[C@@H]3CC[C@@H](N)[C@@H](F)CO3)ccc2F)c(F)c1` (stereo partly drawn) [Example 211, N-(5-((2S,5R,6R)-5-amino-6-fluorooxepan-2-yl)-1-methyl-1H-pyrazol-4-yl)-6-(2,6-difluoro-4-(1-methoxyethyl)phenyl)-5-fluoropicolinamide], the Ki under setting [1] turned out to be 0.037 nM.

For the compound `CO[C@H]1CO[C@H](c2c(NC(=O)c3nc(-c4c(F)ccc(F)c4F)sc3N)cnn2C)CC[C@H]1N` [Example 262, 5-amino-N-(5-((2S,5R,6R)-5-amino-6-methoxyoxepan-2-yl)-1-methyl-1H-pyrazol-4-yl)-2-(2,3,6-trifluorophenyl)thiazole-4-carboxamide], under setting [1], the inhibition constant (Ki) is 0.01 nM.

On to `Cn1ncc(NC(=O)c2nc(-c3c(F)cccc3F)sc2N)c1C1C[C@@H](N)[C@H](F)CCO1` (stereo partly drawn) [Example 127, 5-amino-N-(5-((4R,5R)-4-amino-5-fluorooxepan-2-yl)-1-methyl-1H-pyrazol-4-yl)-2-(2,6-difluorophenyl)thiazole-4-carboxamide], for which the inhibitory constant (Ki) under setting [1] came out at 0.112 nM.

`COc1ccc(C(F)F)c(F)c1-c1nc(C(=O)Nc2cnn(C)c2[C@@H]2CC[C@@H](N)[C@H](F)CO2)cs1` [Example 378, N-[5-[(2S,5R,6S)-5-amino-6-fluoro-oxepan-2-yl]-1-methyl-pyrazol-4-yl]-2-[3-(difluoromethyl)-2-fluoro-6-methoxy-phenyl]thiazole-4-carboxamide]: the Ki under setting [1] came to 1.48 nM.

In the case of `CO[C@H]1C[C@H](c2c(NC(=O)c3nc(-c4c(F)cccc4F)sc3N)cnn2C)OCC[C@@H]1N` [Example 138, 5-amino-N-(5-((2R,4S,5S)-5-amino-4-methoxyoxepan-2-yl)-1-methyl-1H-pyrazol-4-yl)-2-(2,6-difluorophenyl)thiazole-4-carboxamide], the inhibition constant (Ki) under setting [1] came out at 1.87 nM.

Consider `Cc1ccc(F)c(-c2nc(C(=O)Nc3cnn(C)c3[C@@H]3CC[C@@H](N)[C@H](F)CO3)c(N)s2)c1` [Example 292, 5-amino-N-(5-((2S,5R,6S)-5-amino-6-fluorooxepan-2-yl)-1-methyl-1H-pyrazol-4-yl)-2-(2-fluoro-5-methylphenyl)thiazole-4-carboxamide], for which the Ki under setting [1] turned out to be 0.024 nM.

Take `Cn1ncc(NC(=O)c2nc(-c3ccccc3F)sc2N)c1C12CCC(CN)(CC1)O2` [Example 139, 5-amino-N-[5-[1-(aminomethyl)-7-oxabicyclo[2.2.1]heptan-4-yl]-1-methyl-pyrazol-4-yl]-2-(2-fluorophenyl)thiazole-4-carboxamide]: the inhibition constant (Ki) under setting [1] is 0.053 nM.

For `Cc1ccc(F)c(-c2nc(C(=O)Nc3cnn(C)c3[C@@H]3CC[C@@H](N)[C@H](F)CO3)cs2)c1` [Example 238, N-(5-((2S,5R,6S)-5-amino-6-fluorooxepan-2-yl)-1-methyl-1H-pyrazol-4-yl)-2-(2-fluoro-5-methylphenyl)thiazole-4-carboxamide], the inhibition constant (Ki) under setting [1] is 0.048 nM.

Turning to `Cn1ncc(NC(=O)c2nc(-c3cc(F)cc(F)c3F)sc2N)c1[C@@H]1CC[C@@H](N)[C@@H](F)CO1` [Example 261, 5-amino-N-(5-((2S,5R,6R)-5-amino-6-fluorooxepan-2-yl)-1-methyl-1H-pyrazol-4-yl)-2-(2,3,5-trifluorophenyl)thiazole-4-carboxamide], the inhibition constant Ki under setting [1] came to 0.037 nM.

The record behind these values is patent US9328106B2, “Cyclic ether pyrazol-4-yl-heterocyclyl-carboxamide compounds and methods of use” (Genentech, Inc., priority 2012, dated 2016).
